Test results: patent US10357493B2, “Metalloenzyme inhibitor compounds” (Selenity Therapeutics (Bermuda), Ltd., priority 2017, dated 2019)

What was measured:
[1] = biological target: HDAC1 (Homo sapiens (Human), UniProt Q13547); experiment: HDAC1 enzymatic assay; format: biochemical; details: read-out: Human HDAC1 IC50
In short: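 Compound inhibition of human HDAC1 (0.5 ng enzyme, 10 uM substrate) was assessed by fluorescence after developer treatment, excitation 360 nm and emission 460 nm. Percent activity was normalized to no-compound (100%) and no-enzyme (0%) controls, plotted against concentration, and fitted to a sigmoidal dose-response curve in Graphpad Prism to obtain IC50 at half-maximal activity.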

[2] = biological target: HDAC6 (Homo sapiens (Human), UniProt Q9UBN7); experiment: HDAC6 enzymatic assay; format: biochemical; details: read-out: Human HDAC6 IC50
Chain of HDAC6 (Q9UBN7 whole entry): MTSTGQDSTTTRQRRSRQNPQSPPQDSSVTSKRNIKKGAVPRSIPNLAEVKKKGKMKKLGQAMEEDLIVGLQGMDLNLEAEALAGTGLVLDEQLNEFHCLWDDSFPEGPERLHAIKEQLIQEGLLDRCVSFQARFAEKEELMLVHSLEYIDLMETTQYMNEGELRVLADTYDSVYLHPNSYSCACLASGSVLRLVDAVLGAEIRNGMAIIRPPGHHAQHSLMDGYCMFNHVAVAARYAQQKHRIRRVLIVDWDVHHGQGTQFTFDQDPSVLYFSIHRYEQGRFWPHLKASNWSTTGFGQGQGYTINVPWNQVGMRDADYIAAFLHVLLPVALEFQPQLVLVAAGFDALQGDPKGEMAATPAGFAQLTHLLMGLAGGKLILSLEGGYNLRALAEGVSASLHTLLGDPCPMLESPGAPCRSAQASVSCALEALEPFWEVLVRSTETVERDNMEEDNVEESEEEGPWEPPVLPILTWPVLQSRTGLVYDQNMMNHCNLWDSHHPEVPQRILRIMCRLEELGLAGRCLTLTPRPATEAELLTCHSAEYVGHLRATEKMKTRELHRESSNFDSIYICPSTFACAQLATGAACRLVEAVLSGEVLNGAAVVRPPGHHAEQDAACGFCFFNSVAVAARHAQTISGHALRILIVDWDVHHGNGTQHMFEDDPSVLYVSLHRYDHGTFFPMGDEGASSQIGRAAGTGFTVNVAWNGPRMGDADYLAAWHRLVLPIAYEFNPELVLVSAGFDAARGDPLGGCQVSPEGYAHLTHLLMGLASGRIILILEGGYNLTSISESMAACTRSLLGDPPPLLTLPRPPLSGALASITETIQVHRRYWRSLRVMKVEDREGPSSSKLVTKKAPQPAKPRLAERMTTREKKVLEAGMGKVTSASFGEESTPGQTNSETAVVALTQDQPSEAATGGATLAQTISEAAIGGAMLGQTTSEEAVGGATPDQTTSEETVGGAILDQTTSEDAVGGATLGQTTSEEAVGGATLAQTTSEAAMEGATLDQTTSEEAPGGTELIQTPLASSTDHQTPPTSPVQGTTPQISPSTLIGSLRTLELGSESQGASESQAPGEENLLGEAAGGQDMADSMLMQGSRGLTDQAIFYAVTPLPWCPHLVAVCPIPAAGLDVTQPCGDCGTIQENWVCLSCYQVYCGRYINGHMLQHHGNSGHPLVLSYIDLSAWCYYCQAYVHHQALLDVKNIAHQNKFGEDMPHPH
In short: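 Following a 17 hour room-temperature incubation of 2 ng HDAC6 with 10 uM substrate and compound, 50 μl developer was added for another 20 minutes, and fluorescence (excitation 360 nm, emission 460 nm) was recorded. Activity was normalized to no-compound (100%) and no-enzyme (0%) wells, and IC50 came from sigmoidal dose-response fitting in Graphpad Prism.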

Chain of HDAC1 (Q13547 whole entry): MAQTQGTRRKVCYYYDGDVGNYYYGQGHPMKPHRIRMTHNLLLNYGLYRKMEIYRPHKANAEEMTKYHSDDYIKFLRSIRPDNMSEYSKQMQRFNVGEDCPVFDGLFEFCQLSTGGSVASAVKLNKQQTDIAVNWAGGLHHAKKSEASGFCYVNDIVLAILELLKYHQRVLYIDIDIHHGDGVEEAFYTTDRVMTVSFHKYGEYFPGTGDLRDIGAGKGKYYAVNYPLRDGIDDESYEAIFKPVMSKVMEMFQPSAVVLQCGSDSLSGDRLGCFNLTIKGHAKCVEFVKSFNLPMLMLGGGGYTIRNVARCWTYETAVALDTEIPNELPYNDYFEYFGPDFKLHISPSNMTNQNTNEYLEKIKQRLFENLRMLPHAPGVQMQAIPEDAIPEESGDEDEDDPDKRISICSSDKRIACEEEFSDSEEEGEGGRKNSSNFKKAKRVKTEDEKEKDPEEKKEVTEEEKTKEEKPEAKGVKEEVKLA

CCS(=O)(=O)NCC(Nc1ncc(-c2nnc(C(F)F)o2)cn1)c1ccc(OC(F)F)cc1F (stereo not drawn) [147(+), N-(2-(4-(difluoromethoxy)-2-fluorophenyl)-2-((5-(5-(difluoromethyl)-1,3,4-oxadiazol-2-yl)pyrimidin-2-yl)amino)ethyl)ethanesulfonamide]
IC50 [1]: > 30 µM
IC50 [2]: 18 nM

CCS(=O)(=O)N(C)CC(Nc1ncc(-c2nnc(C(F)F)o2)cn1)c1ccc(OC(F)F)cc1F (stereo not drawn) [148(+), N-(2-(4-(difluoromethoxy)-2-fluorophenyl)-2-((5-(5-(difluoromethyl)-1,3,4-oxadiazol-2-yl)pyrimidin-2-yl)amino)ethyl)-N-methylethanesulfonamide]
IC50 [1]: > 30 µM
IC50 [2]: 19 nM

CCS(=O)(=O)N(CC(Nc1ncc(-c2nnc(C(F)F)o2)cn1)c1ccc(OC(F)F)cc1F)CC(F)(F)F (stereo not drawn) [149(+), N-(2-(4-(difluoromethoxy)-2-fluorophenyl)-2-((5-(5-(difluoromethyl)-1,3,4-oxadiazol-2-yl)pyrimidin-2-yl)amino)ethyl)-N-(2,2,2-trifluoroethyl)ethanesulfonamide]
IC50 [1]: > 30 µM
IC50 [2]: 200 nM

CN(CC(Nc1ncc(-c2nnc(C(F)F)o2)cn1)c1ccc(OC(F)F)cc1F)S(=O)(=O)C1CC1 (stereo not drawn) [151(+), N-(2-(4-(difluoromethoxy)-2-fluorophenyl)-2-((5-(5-(difluoromethyl)-1,3,4-oxadiazol-2-yl)pyrimidin-2-yl)amino)ethyl)-N-methylcyclopropanesulfonamide]
IC50 [1]: > 30 µM
IC50 [2]: 85 nM

O=S(=O)(C1CC1)N(CC(Nc1ncc(-c2nnc(C(F)F)o2)cn1)c1ccc(OC(F)F)cc1F)CC(F)(F)F (stereo not drawn) [152(+), N-(2-(4-(difluoromethoxy)-2-fluorophenyl)-2-((5-(5-(difluoromethyl)-1,3,4-oxadiazol-2-yl)pyrimidin-2-yl)amino)ethyl)-N-(2,2,2-trifluoroethyl)cyclopropanesulfonamide]
IC50 [1]: > 30 µM
IC50 [2]: 280 nM

CN(CC(Nc1ncc(-c2nnc(C(F)F)o2)cn1)c1ccc(OC(F)(F)F)cc1)S(C)(=O)=O (stereo not drawn) [153(+), N-(2-((5-(5-(difluoromethyl)-1,3,4-oxadiazol-2-yl)pyrimidin-2-yl)amino)-2-(4-(trifluoromethoxy)phenyl)ethyl)-N-methylmethanesulfonamide]
IC50 [1]: > 30 µM
IC50 [2]: 20 nM

CS(=O)(=O)N(CC(Nc1ncc(-c2nnc(C(F)F)o2)cn1)c1ccc(OC(F)(F)F)cc1)CC(F)(F)F (stereo not drawn) [154(+), N-(2-((5-(5-(difluoromethyl)-1,3,4-oxadiazol-2-yl)pyrimidin-2-yl)amino)-2-(4-(trifluoromethoxy)phenyl)ethyl)-N-(2,2,2-trifluoroethyl)methanesulfonamide]
IC50 [1]: > 30 µM
IC50 [2]: 260 nM

CCS(=O)(=O)NCC(Nc1ncc(-c2nnc(C(F)F)o2)cn1)c1ccc(OC(F)(F)F)cc1 (stereo not drawn) [155(+), N-(2-((5-(5-(difluoromethyl)-1,3,4-oxadiazol-2-yl)pyrimidin-2-yl)amino)-2-(4-(trifluoromethoxy)phenyl)ethyl)ethanesulfonamide]
IC50 [1]: > 30 µM
IC50 [2]: 50 nM

CCS(=O)(=O)N(C)CC(Nc1ncc(-c2nnc(C(F)F)o2)cn1)c1ccc(OC(F)(F)F)cc1 (stereo not drawn) [156(+), N-(2-((5-(5-(difluoromethyl)-1,3,4-oxadiazol-2-yl)pyrimidin-2-yl)amino)-2-(4-(trifluoromethoxy)phenyl)ethyl)-N-methylethanesulfonamide]
IC50 [1]: > 30 µM
IC50 [2]: 76 nM

CCS(=O)(=O)N(CC(Nc1ncc(-c2nnc(C(F)F)o2)cn1)c1ccc(OC(F)(F)F)cc1)CC(F)(F)F (stereo not drawn) [157(+), N-(2-((5-(5-(difluoromethyl)-1,3,4-oxadiazol-2-yl)pyrimidin-2-yl)amino)-2-(4-(trifluoromethoxy)phenyl)ethyl)-N-(2,2,2-trifluoroethyl)ethanesulfonamide]
IC50 [1]: > 30 µM
IC50 [2]: 440 nM

O=S(=O)(NCC(Nc1ncc(-c2nnc(C(F)F)o2)cn1)c1ccc(OC(F)(F)F)cc1)C1CC1 (stereo not drawn) [158(+), N-(2-((5-(5-(difluoromethyl)-1,3,4-oxadiazol-2-yl)pyrimidin-2-yl)amino)-2-(4-(trifluoromethoxy)phenyl)ethyl)cyclopropanesulfonamide]
IC50 [1]: > 30 µM
IC50 [2]: 51 nM

CN(CC(Nc1ncc(-c2nnc(C(F)F)o2)cn1)c1ccc(OC(F)(F)F)cc1)S(=O)(=O)C1CC1 (stereo not drawn) [159(+), N-(2-((5-(5-(difluoromethyl)-1,3,4-oxadiazol-2-yl)pyrimidin-2-yl)amino)-2-(4-(trifluoromethoxy)phenyl)ethyl)-N-methylcyclopropanesulfonamide]
IC50 [1]: > 30 µM
IC50 [2]: 90 nM

O=S(=O)(C1CC1)N(CC(Nc1ncc(-c2nnc(C(F)F)o2)cn1)c1ccc(OC(F)(F)F)cc1)CC(F)(F)F (stereo not drawn) [160(+), N-(2-((5-(5-(difluoromethyl)-1,3,4-oxadiazol-2-yl)pyrimidin-2-yl)amino)-2-(4-(trifluoromethoxy)phenyl)ethyl)-N-(2,2,2-trifluoroethyl)cyclopropanesulfonamide]
IC50 [1]: > 30 µM
IC50 [2]: 580 nM

FC(F)(F)c1nnc(-c2cnc(NC3(c4ccccc4)CC3)nc2)o1 [Example 1, N-(1-phenylcyclopropyl)-5-(5-(trifluoromethyl)-1,3,4-oxadiazol-2-yl) pyrimidin-2-amine]
IC50 [1]: > 30 µM
IC50 [2]: 210 nM

CC(Nc1ncc(-c2nnc(C(F)(F)F)o2)cn1)c1ccccc1 (centres unmarked) [Example 2, N-(1-phenylethyl)-5-(5-(trifluoromethyl)-1,3,4-oxadiazol-2-yl)pyrimidin-2-amine]
IC50 [1]: > 30 µM
IC50 [2]: 390 nM

Cc1cccc(CNc2ncc(-c3nnc(C(F)(F)F)o3)cn2)n1 [Example 3, N-((6-methylpyridin-2-yl)methyl)-5-(5-(trifluoromethyl)-1,3,4-oxadiazol-2-yl) pyrimidin-2-amine]
IC50 [1]: > 30 µM
IC50 [2]: 230 nM

CC(Nc1ncc(-c2nnc(C(F)F)o2)cn1)c1ccccc1 (centres unmarked) [Example 6, 5-(5-(difluoromethyl)-1,3,4-oxadiazol-2-yl)-N-(1-phenylethyl)pyrimidin-2-amine]
IC50 [1]: > 30 µM
IC50 [2]: 57 nM

FC(F)c1nnc(-c2cnc(NC(c3ccccc3)c3ccccc3)nc2)o1 [Example 7, N-benzhydryl-5-(5-(difluoromethyl)-1,3,4-oxadiazol-2-yl)pyrimidin-2-amine]
IC50 [1]: > 30 µM
IC50 [2]: 1700 nM

CN(c1ncc(-c2nnc(C(F)F)o2)cn1)C1(c2ccc(F)cc2)CC1 [Example 8, 5-(5-(difluoromethyl)-1,3,4-oxadiazol-2-yl)-N-(1-(4-fluorophenyl)cyclopropyl)-N-methylpyrimidin-2-amine]
IC50 [1]: > 30 µM
IC50 [2]: 9000 nM

Fc1ccc(C2(Nc3ncc(-c4nnc(C(F)F)o4)cn3)CC2)c(F)c1 [Example 10, 5-(5-(difluoromethyl)-1,3,4-oxadiazol-2-yl)-N-(1-(2,4-difluorophenyl)cyclopropyl)pyrimidin-2-amine]
IC50 [1]: > 100 µM
IC50 [2]: 9 nM

FC(F)c1nnc(-c2cnc(OC3(c4ccccc4)CC3)nc2)o1 [Example 12, 2-(difluoromethyl)-5-(2-(1-phenylcyclopropoxy)pyrimidin-5-yl)-1,3,4-oxadiazole]
IC50 [1]: > 30 µM
IC50 [2]: 210 nM

Fc1ccc(-c2ccccc2C2(Nc3ncc(-c4nnc(C(F)F)o4)cn3)CC2)cc1 [Example 14, 5-(5-(difluoromethyl)-1,3,4-oxadiazol-2-yl)-N-(1-(4′-fluoro-[1,1′-biphenyl]-2-yl)cyclopropyl)pyrimidin-2-amine]
IC50 [1]: > 30 µM
IC50 [2]: > 30000 nM
